The source made the active and inactive calls.
Key:
Beta-galactosidase = Beta-galactosidase (Escherichia coli, UniProt Q8VNN2); test: Dose response counterscreen for EBI2 assay utilizing the enzyme, b-galactosidase.; format: functional
[1] = biological target: Matrix metalloproteinase-14 (Homo sapiens, UniProt P50281); test: Dose Response confirmation of uHTS hits for a small molecule inhibitors of MT1-MMP activation in a fluorescence assay set 1.; format: functional
Fatty acid synthase [2] = biological target: T1, Fatty acid synthase (Homo sapiens, UniProt P49327); test: FAS thioesterase domain inhibitors, dose response, biochemical, kinetic fluorescence intensity (AID 624326); format: functional;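 further: rate of fluorescence rise from hydrolysis of a fluorogenic O-methyl fluorescein ester substrate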
Fatty acid synthase [3] = biological target: T1, Fatty acid synthase; test: FAS thioesterase domain inhibitors, dose response, biochemical, endpoint fluorescence intensity, uHTS hits (AID 624327); format: functional;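 further: fluorescence from hydrolysis of an O-methyl fluorescein acyl ester substrate by the enzyme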
Nonstructural protein 1 = Nonstructural protein 1 (Influenza A virus, UniProt Q194T2); format: functional, Influenza A virus (A/California/07/2009(H1N1))
[4] = HEK293T cytotoxicity, dose response, cytotoxicity control for miR-122 modulator project, cell-based, inhibitor set, cherry-pick, set 2 (AID 720697); format: functional
[5] = biological target: Photoreceptor-specific nuclear receptor (Homo sapiens, UniProt Q9Y5X4); test: NR2E3 inverse agonists, dose response, biochemical, TR-FRET (AID 463256); format: functional
[6] = human group III sPLA2 inhibitors, dose response, biochemical, QFRET, IC50 (AID 743457);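 further: green fluorescence rise as the enzyme cleaves BODIPY PC-A2 in liposomes; potency for inhibition of the enzyme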
[7] = biological target: Peroxisome proliferator-activated receptor gamma/Nuclear receptor corepressor 2 (Homo sapiens, UniProt P37231+Q9Y618); test: Counterscreen for NR2E3 inverse agonists: TR-FRET-based biochemical high throughput dose response assay to identify inverse agonists of the interaction between peroxisome proliferator-activated receptor gamma (PPARg) and nuclear receptor co-repressor 2 (NCOR2).; format: functional
[8] = inhibitors of intracellular T. cruzi replication, confirmation, NIH3T3 host cells, beta-gal luminescence (AID 2044); format: functional, cell-based;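 further: intracellular parasites grown in NIH/3T3 mouse fibroblasts as host cells; luminescent beta-galactosidase reporter signal from transgenic T. cruzi replicating inside host cells; inhibitors lower the luminescence signal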
[9] = biological target: Arf-GAP with SH3 domain, ANK repeat and PH domain-containing protein 1 (Homo sapiens, UniProt Q9ULH1); format: functional;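 further: biochemical fluorescence polarization dose–response screen measuring inhibition of ASAP1; ASAP1 GAP domain stimulating GTP hydrolysis by truncated human ARF1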
[10] = cytotoxicity toward NIH3T3 fibroblasts, dose response, counter-screen, cell-based, ATP luminescence, mouse fibroblasts (AID 2010); format: functional;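 further: cells exposed to compound for about 90 hours before reading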
[11] = ADAM10 protease inhibitors, dose response, selectivity assay for ADAM17 exosite inhibitor project, biochemical, FRET peptide substrate, recombinant human ADAM10 (AID 743259);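 further: ADAM10 enzyme cleaving a FRET peptide substrate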
[12] = biological target: T2, Disintegrin and metalloproteinase domain-containing protein 17 (Homo sapiens, UniProt P78536); test: exosite inhibitors of ADAM17, dose response, biochemical (AID 743260)
[13] = biological target: Metabotropic glutamate receptor 5 (Rattus norvegicus, UniProt P31424); test: Identification of a glycine sulfonamide based non-MPEP site positive allosteric potentiator (PAM) of mGlu5 (calcium_assay).; format: functional
[14] = biological target: 1-phosphatidylinositol 4,5-bisphosphate phosphodiesterase gamma-1 (Homo sapiens, UniProt P19174); test: Counterscreen for inhibitors of phospholipase C isozymes (PLC-B3): Fluorescence-based biochemical high throughput dose response assay to identify inhibitors of phospholipase C isozymes (PLC-gamma1).
[15] = biological target: T3, Carboxy-terminal domain RNA polymerase II polypeptide A small phosphatase 1 (Homo sapiens, UniProt Q9GZU7); test: inhibitors of CTDSP1, concentration-response testing, biochemical assay, absorbance-based, actives from ultra-high-throughput screening (AID 540297); format: functional
T3 sequence (Q9GZU7 whole entry): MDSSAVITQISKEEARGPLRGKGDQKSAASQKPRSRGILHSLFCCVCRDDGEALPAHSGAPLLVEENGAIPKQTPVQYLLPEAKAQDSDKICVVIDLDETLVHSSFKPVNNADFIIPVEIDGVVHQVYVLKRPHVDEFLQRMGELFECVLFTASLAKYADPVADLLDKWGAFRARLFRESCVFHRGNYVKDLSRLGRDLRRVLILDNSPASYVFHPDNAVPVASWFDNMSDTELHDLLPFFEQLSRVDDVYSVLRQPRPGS

[16] = biological target: 1-phosphatidylinositol 4,5-bisphosphate phosphodiesterase beta-3 (Homo sapiens, UniProt Q01970); test: Fluorescence-based biochemical high throughput dose response assay to identify inhibitors of phospholipase C isozymes (PLC-B3).
[17] = biological target: T4, Heat shock factor protein 1 (Mus musculus, UniProt P38532); test: inhibition of MG132-induced HSE-luciferase signal, confirmation, cell-based, NIH3T3, luminescence, dose retest (AID 2382); format: functional;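 further: NIH3T3 fibroblasts with HSF1-driven luciferase reporter stressed by proteasome inhibitor MG132; luminescence from HSF1-driven luciferase expression after 8 hours of MG132 stress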
T4 sequence (P38532 whole entry): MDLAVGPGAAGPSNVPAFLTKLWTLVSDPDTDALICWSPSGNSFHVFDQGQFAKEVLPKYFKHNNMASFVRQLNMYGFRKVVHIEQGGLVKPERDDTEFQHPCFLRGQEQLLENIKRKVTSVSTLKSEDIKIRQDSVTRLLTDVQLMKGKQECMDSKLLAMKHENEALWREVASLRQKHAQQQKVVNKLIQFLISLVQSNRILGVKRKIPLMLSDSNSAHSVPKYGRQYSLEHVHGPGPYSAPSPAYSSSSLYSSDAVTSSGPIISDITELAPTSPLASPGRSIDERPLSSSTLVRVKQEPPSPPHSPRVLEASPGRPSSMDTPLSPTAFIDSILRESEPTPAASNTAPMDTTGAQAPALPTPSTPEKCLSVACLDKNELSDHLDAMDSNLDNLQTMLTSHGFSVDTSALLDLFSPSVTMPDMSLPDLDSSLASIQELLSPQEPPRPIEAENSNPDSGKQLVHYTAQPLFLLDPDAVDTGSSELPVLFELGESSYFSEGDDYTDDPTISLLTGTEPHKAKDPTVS

[18] = MC4R antagonists, dose response, counter-screen for LGR2 antagonist project, cell-based, plate reader, cherry pick (AID 743444); format: functional;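 further: transfected HEK 293 cells stimulated with alpha-MSH peptide; potency of inhibitors of the alpha-MSH evoked signal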
[19] = cytotoxicity in HEK-293T cells, dose response, cytotoxicity control for TCR NF-kB inhibitor project, luminescence, T-cell screen hits (AID 489026); format: functional, cell-based;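 further: cells exposed to compound about 14 hours before the viability readout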
[20] = HepG2 cell cytotoxicity, dose response, cytotoxicity control, plate reader, cherry-pick, antagonist series (AID 743416); format: functional, cell-based
[21] = reduction of Shn3 3'UTR firefly luciferase signal, dose response, Schnurri-3 inhibitor project, cell-based, Clone20 osteoblasts, cherry-pick, set 2 (AID 720490); format: functional;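 further: actives lower the luminescence signal as inhibitors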
Paired box protein Pax-8 = Paired box protein Pax-8 (Homo sapiens, UniProt Q06710); test: inhibitors of PAX8-driven TPO luciferase reporter, dose response, RMG-I cells, cherry-pick (AID 687027); format: functional, cell-based;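 further: luciferase reporter driven by Pax8 target thyroperoxidase promoter measured by SteadyGlo luminescence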
[22] = Shn3 3'UTR reporter inhibitors, dose response, cell-based, Clone20 osteoblasts, firefly luciferase, cherry-picked (AID 624132); format: functional;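 further: firefly luciferase luminescence from reporter carrying the Shn3 3'UTR in osteoblasts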
[23] = HepG2 cell cytotoxicity, dose response, cytotoxicity control for Shn3 inhibitor project, CellTiter-Glo, cherry-picked (AID 624134); format: functional, cell-based
[24] = LGR2 antagonists, dose response, cell-based, HEK293, CRE-luciferase reporter, cherry pick, set 2 (AID 743343); format: functional;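 further: transfected cells were stimulated with diluted bursicon conditioned medium after compound addition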
[25] = HEK293 cell cytotoxicity, dose response, cytotoxicity control, plate reader, cherry-picked samples (AID 743446); format: functional, cell-based
[26] = microbe, parasite or virus in culture; format: functional; conditions: Mycobacterium tuberculosis
[27] = biological target: T2, Disintegrin and metalloproteinase domain-containing protein 17; test: ADAM17 protease inhibitors, dose response, counter-screen for ADAM10 exosite inhibitor project, biochemical, quenched FRET substrate (AID 743253)
[28] = ADAM10 inhibitors, peptide cleavage, dose response, biochemical, QFRET (AID 743254);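 further: ADAM10 enzyme with the DM2 quenched FRET peptide as substrate; EDANS fluorescence gain as the protease cuts the substrate; inhibitor potency against ADAM10 proteolytic activity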

T2 sequence (P78536 whole entry, the tested form may be a part): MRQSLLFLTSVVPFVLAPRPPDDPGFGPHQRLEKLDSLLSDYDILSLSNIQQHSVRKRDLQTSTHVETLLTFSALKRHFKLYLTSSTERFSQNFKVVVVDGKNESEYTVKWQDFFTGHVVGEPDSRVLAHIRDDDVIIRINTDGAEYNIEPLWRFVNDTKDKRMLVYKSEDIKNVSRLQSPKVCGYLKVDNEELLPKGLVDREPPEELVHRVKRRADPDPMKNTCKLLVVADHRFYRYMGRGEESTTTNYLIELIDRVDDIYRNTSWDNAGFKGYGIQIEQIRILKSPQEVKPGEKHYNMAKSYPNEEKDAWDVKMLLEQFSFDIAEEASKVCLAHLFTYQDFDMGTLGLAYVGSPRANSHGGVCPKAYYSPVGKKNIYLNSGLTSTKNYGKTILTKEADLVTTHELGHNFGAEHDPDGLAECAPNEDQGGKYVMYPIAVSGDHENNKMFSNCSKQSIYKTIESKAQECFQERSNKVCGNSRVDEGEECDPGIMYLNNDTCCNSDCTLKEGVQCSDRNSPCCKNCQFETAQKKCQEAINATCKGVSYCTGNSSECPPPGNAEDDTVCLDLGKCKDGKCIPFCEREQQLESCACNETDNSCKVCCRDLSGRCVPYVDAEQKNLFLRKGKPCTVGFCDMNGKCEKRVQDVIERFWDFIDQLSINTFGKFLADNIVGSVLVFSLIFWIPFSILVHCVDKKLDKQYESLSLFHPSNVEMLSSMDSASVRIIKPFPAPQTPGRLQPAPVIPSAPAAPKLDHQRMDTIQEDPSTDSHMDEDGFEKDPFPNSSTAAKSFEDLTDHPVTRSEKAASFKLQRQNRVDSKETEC
T1 sequence (P49327 whole entry, the tested form may be a part): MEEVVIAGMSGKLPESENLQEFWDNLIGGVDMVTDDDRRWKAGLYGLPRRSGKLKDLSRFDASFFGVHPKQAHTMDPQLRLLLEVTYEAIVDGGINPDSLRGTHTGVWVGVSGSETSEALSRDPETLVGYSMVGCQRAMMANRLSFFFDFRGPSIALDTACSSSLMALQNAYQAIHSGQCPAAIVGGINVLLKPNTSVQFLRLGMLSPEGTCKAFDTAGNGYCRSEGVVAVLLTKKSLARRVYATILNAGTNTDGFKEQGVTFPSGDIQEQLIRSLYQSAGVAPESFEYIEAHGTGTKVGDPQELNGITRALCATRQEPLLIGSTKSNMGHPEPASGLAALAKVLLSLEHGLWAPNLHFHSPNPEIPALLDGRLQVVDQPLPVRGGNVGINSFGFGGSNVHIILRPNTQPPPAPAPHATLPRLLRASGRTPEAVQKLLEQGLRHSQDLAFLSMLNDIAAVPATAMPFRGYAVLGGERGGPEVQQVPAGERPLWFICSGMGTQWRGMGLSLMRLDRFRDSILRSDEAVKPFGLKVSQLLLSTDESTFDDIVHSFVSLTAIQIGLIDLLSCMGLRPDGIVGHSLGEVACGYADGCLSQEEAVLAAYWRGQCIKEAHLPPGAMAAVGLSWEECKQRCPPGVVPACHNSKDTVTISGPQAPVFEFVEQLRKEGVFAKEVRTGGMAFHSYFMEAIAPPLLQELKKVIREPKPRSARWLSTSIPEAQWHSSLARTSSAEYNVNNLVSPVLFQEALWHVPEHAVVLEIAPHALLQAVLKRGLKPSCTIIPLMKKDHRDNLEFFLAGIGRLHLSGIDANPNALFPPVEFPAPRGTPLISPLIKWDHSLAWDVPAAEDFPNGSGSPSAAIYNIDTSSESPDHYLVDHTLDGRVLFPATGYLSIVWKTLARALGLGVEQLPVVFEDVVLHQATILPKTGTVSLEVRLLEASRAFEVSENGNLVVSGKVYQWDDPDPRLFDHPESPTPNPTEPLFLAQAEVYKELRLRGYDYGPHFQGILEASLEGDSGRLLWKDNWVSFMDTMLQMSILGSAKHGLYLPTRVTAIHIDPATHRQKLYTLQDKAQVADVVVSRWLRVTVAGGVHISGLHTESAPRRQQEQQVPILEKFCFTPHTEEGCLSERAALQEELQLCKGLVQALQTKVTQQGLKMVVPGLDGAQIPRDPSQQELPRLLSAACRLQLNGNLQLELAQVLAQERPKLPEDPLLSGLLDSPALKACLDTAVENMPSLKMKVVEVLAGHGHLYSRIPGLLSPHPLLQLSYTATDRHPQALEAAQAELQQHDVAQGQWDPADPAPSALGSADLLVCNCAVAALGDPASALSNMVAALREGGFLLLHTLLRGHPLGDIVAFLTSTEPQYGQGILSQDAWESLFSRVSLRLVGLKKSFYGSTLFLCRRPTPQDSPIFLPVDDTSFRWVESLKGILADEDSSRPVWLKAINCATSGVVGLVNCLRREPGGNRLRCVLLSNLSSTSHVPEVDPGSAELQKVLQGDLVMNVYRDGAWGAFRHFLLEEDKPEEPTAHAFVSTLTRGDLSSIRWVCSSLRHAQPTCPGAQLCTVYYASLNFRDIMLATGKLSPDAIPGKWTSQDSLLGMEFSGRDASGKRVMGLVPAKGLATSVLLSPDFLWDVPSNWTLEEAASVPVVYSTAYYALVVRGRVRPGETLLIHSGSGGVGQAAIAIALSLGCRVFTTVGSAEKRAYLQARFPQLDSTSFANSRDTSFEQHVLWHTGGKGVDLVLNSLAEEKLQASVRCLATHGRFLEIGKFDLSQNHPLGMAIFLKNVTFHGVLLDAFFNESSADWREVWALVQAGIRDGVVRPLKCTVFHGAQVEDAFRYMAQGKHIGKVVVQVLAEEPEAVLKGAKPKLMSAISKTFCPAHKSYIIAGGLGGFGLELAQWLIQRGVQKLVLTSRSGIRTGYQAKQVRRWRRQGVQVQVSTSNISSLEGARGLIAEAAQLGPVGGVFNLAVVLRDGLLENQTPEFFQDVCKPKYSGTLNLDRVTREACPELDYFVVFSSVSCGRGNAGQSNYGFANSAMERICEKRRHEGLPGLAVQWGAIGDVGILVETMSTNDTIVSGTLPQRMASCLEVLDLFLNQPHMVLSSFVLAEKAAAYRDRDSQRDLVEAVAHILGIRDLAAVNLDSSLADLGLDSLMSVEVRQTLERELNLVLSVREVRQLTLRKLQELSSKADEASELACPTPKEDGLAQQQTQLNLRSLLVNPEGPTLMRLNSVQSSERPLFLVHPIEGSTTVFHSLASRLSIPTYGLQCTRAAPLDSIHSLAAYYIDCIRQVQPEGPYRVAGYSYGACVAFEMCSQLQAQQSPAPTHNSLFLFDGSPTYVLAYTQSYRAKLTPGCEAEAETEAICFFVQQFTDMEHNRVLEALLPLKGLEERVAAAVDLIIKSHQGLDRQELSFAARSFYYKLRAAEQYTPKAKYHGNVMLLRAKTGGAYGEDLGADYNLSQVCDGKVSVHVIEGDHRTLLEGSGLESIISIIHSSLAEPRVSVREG
1-phosphatidylinositol 4,5-bisphosphate phosphodiesterase beta-3, sequence (Q01970 whole entry): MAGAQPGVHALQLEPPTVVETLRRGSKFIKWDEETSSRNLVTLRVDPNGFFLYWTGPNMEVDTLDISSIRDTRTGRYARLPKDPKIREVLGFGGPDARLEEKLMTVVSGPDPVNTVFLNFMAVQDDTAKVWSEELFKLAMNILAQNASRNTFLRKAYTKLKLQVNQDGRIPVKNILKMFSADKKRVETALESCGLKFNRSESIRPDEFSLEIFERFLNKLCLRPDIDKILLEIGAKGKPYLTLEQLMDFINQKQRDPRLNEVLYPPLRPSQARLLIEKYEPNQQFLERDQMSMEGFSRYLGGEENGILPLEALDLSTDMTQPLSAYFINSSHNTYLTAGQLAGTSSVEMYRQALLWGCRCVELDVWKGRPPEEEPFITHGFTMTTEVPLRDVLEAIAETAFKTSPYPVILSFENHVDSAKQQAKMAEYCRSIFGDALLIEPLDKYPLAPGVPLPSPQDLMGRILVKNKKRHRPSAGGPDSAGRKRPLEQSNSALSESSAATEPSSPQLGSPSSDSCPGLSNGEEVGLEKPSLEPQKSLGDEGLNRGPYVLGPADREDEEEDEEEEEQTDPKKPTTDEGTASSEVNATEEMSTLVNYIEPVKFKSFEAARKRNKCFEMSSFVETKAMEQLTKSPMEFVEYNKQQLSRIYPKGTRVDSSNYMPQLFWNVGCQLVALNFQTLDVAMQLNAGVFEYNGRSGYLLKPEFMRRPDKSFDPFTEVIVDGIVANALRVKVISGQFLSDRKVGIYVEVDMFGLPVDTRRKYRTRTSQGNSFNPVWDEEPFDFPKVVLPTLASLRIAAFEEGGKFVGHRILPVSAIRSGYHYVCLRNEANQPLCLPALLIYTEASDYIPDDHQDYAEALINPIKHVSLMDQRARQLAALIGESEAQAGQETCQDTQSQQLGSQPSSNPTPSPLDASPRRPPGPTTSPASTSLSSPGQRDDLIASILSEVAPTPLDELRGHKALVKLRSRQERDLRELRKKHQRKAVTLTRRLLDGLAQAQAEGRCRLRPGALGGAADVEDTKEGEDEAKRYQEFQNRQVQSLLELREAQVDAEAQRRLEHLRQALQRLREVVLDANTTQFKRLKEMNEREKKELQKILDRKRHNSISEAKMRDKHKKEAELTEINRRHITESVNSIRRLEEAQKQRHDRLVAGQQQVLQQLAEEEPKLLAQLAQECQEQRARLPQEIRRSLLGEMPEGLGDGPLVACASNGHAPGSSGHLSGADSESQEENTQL
Photoreceptor-specific nuclear receptor, sequence (Q9Y5X4 whole entry): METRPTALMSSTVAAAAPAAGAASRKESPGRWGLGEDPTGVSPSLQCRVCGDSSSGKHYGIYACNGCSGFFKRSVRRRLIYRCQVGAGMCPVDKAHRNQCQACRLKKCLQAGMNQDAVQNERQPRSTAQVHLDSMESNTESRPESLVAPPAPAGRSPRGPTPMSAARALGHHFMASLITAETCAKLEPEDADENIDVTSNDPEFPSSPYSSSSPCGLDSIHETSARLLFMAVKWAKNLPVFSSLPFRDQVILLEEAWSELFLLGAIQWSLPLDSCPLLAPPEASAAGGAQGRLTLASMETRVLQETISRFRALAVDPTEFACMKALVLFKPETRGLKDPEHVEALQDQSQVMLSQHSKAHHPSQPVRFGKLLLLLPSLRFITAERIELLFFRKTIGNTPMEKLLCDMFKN

Structure (SMILES): COc1ccccc1N1CCN(C(=O)c2cc(=O)c3cc(C)ccc3o2)CC1
- IC50 (Beta-galactosidase): > 80 µM (inactive)

Structure (SMILES): CN1C(=O)/C(=C\c2cc(N=Nc3ccccc3)ccc2O)SC1=S
- IC50 [1]: > 80 µM (inactive)
- IC50 (Fatty acid synthase [2]): 24.4 µM (inactive)
- IC50 (Fatty acid synthase [3]): 33.7 µM (inactive)
- IC50 (Nonstructural protein 1): 4.51 µM (active)

Structure (SMILES): CCNC(=O)CCC(=O)Nc1cc(Cl)ccc1C
- AC50 [4]: 9 µM (active)

Structure (SMILES): CCn1c(S)nnc1-c1csc2c1CCCC2
- IC50 [5]: 25.2 µM (not active)
- IC50 [6]: > 122 µM (inactive)
- IC50 [7]: > 39.8 µM (not active)

Structure (SMILES): CCc1cccc2c(C(=O)CN3C(=O)NC(C)(c4cccc5ccccc45)C3=O)c[nH]c12 (stereo unspecified)
- EC50 [8]: 1.75 µM (active)
- IC50 [9]: 165 µM (inactive)
- EC50 [10]: > 30 µM (not active)

Structure (SMILES): Cc1ccccc1NC1=NC(=O)/C(=C/c2cccn2C)S1
- IC50 [11]: > 69.5 µM (inactive)
- IC50 [12]: > 69.5 µM (inactive)

Structure (SMILES): O=S(=O)(c1ccc(F)cc1)N1CCCC(c2nc(-c3ccc(F)cc3)no2)C1 (stereo unspecified)
- EC50 [13]: 4.53 µM

Structure (SMILES): Cc1cccc(NC(=O)Cn2c(O)c(N=NC(=O)c3ccccc3O)c3ccccc32)c1
- IC50 [14]: > 123 µM (inactive)
- IC50 [15]: 1.99 µM (active)
- IC50 [16]: > 123 µM (inactive)

Structure (SMILES): Cc1nc(SCC(=O)Nc2nc3ccccc3s2)c(C#N)c(C)c1C
- EC50 [17]: < 0.16 µM (active)
- AC50 [18]: < 0.068 µM (active)
- IC50 [19]: > 80 µM (inactive)
- AC50 [20]: > 52 µM (inactive)
- AC50 [21]: < 0.135 µM (active)
- AC50 (Paired box protein Pax-8): < 0.26 µM (active)
- AC50 [22]: < 0.26 µM (active)
- AC50 [23]: > 70 µM (inactive)
- AC50 [24]: 0.0912 µM (active)
- AC50 [25]: > 52 µM (inactive)

Structure (SMILES): Cc1ccc(C)c(S(=O)(=O)N2CCC(c3nc(O)c4nnn(Cc5ccc6c(c5)OCCO6)c4n3)CC2)c1
- CC50 [26]: > 40 µM (active)
- IC50 [27]: > 69.5 µM (inactive)
- IC50 [28]: > 69.5 µM (inactive)
